Reference: US12662487B2, “Imidazo[1,2-b][1,2,4]triazol derivatives for use in therapy” (SANOFI, priority 2021, dated 2026)

Experiments:
[1] = target: T1, Nur77 (Homo sapiens, UniProt P22736); assay: Activity on HEK - Nur77 modulation (Gal4-DBD luciferase reporter in stable HEK293 cells); assay type: cell-based; conditions: HEK293 cells expressing Gal4-DBD-hNur77 and Pfr-Luc; 24 hours with compound; luminescence
T1 construct: the Pfr-Luc (Gal4-responsive luciferase) reporter sits in the same cells
T1 sequence (P22736 360-598 limits assumed): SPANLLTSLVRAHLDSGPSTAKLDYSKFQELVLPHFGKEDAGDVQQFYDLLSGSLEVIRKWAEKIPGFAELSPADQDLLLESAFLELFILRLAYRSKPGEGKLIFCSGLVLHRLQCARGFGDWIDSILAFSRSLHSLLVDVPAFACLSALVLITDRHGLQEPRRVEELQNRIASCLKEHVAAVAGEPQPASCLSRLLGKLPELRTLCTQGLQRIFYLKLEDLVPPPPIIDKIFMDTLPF
Protocol: Stable HEK293 cells expressing Gal4-DBD-FL-NOT, -hNur77, -hNOR1 and Pfr-Luc were obtained by limit dilution. HEK cells were grown in 75 cm^2 flask in DMEM high glucose 30-2002™ containing 10% calf serum, hygromycin at a content of 250 μg/ml, doxycycline at a content of 2 μg/ml (to induce expression) and 0.4 mg/ml of penicillin. After one week in culture, cells were harvested by trypsinization then plated onto 96 well dishes at the density of 20 000 cell per well in 75 μl of culture medium. After 24 hours compounds were added (25 μl per well) at different concentration for further 24 hours. The medium was removed and measurement was performed by adding 50 μl of Steadyglo (Promega, E2510) with 50 μl PBS per well for 15 minutes and plates were read using microplate luminescent reader.

[2] = target: T2, Nurr1 (Mus musculus, UniProt Q06219); assay: Activity on neuroblastoma cell lines - Nurr1 modulation (NBRE8x luciferase reporter in N2A cells); assay type: cell-based; conditions: N2A cells stably transfected with NBRE8x luciferase reporter; 24 hours with compound
T2 construct: N2A cells obtained from ATCC were stably transfected with NBRE8x (50-AAGGTCA-30) in tandem coupled with luciferase reporter gene; host or cells: N2A neuroblastoma cells
T2 sequence (Q06219 whole entry): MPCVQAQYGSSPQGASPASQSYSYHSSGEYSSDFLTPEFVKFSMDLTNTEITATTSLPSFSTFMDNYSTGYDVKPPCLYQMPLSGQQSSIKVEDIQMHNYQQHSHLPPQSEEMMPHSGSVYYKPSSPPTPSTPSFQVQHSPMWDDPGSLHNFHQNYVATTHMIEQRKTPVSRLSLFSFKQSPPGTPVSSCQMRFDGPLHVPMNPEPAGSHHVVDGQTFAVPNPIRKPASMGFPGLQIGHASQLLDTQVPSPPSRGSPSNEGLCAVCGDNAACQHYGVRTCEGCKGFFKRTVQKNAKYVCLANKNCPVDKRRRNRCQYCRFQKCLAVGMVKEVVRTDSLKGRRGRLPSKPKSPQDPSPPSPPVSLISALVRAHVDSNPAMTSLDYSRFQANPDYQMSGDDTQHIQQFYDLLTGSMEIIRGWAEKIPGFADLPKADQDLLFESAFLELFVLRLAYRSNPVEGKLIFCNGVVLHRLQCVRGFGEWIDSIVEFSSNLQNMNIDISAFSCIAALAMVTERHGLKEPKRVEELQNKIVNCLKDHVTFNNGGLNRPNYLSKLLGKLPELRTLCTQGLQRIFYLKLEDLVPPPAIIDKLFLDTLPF
Protocol: N2A cells obtained from ATCC were stably transfected with NBRE8x (50-AAGGTCA-30) in tandem coupled with luciferase reporter gene. Each NBRE sequence was separated with 5 nucleotides. N2A were grown in 75 cm^2 flask in DMEM containing 10% calf serum, 4.5 g/L glucose and 0.4 mg/ml geneticin. After one week in culture cells were harvested by trypsinization (0.25%, 30 minutes) then plated onto 96 well dishes at the density of 60 000 cell per well in 75 μl of DMEM without phenol red containing 4.5 g/l glucose, 10% lipid free serum from Hyclone. After 24 hours compounds were added (25 μl/well) at different concentration for further 24 hours. Measurement is performed by adding 100 μl of Steadylite per well for 30 minutes and plates were read using microplate […] reader.

IC50 [1] | EC50 [2] | SMILES
0.03 nM | 0.7 nM | Cn1c(-c2ccc3cc[nH]c3c2)cn2nc(-c3ccc(F)cc3)nc12 [compound (1), 6-[2-(4-fluorophenyl)-4-methyl-imidazo[1,2-b][1,2,4]triazol-5-yl]-1H-indole]
 | 63 nM | Cn1c(-c2cccc(F)c2)cn2nc(-c3ccc(F)cc3)nc12 [compound (2), 5-(3-fluorophenyl)-2-(4-fluorophenyl)-4-methyl-4H-imidazo[1,2-b][1,2,4]triazole]
0.9 nM | 0.4 nM | Cn1c(-c2ccccc2)cn2nc(-c3cccc(CO)c3)nc12 [compound (3), [3-(4-methyl-5-phenyl-4H-imidazo[1,2-b][1,2,4]triazol-2-yl)phenyl]methanol]
